From patent publication EP3748362A1, “IN VITRO METHOD FOR DETECTING RENAL DISEASE” (Fundacion Instituto De Investigacion Sanitaria Fundacion …, priority 2019, dated 2020)
Entries after “also recorded” stand apart in the source; their conditions may differ.

Legend:
[1] = tested on: TRAF3; assay: TRAF3 western blot in TWEAK-stimulated PBMCs from healthy donors; assay type: cell-based, Human; settings: paricalcitol 15 umol/L 48 hours before TWEAK 100 ng/ml for 24 hours
[2] = tested on: NF-κB2; assay: Non-canonical NF-κB2 activation and dependent cytokines, folic acid-induced renal injury in mice; assay type: in vivo; settings: folic acid 300 mg/kg model; paricalcitol 25 µg/kg/day i.p.
Procedure: (§1) All animal procedures were performed according to the guidelines of animal research in the European Community and with prior approval by the Ethics Committee of the Health Research of the IIS-Fundacion Jiménez Díaz. For in vivo studies, mice received a daily intraperitoneal injection of the VDRA Paricalcitol starting 48 hours prior to induction of kidney damage.
At the time of sacrifice, animals were anesthetized with 5 mg/kg xylazine (Rompun, Bayer AG) and 35 mg/kg ketamine (Ketolar, Pfizer) and the kidneys perfused in situ with cold saline before removal. Then, kidney portions were fixed in formalin buffer for immunohistochemistry studies or immediately frozen in liquid nitrogen for gene and protein studies. […]
(§2) Paraffin-embedded kidney sections (3 µm) were stained using conventional methods. […] For each sample (processed by duplicate in a blinded manner), the average value was obtained from the analysis of 4 fields (20X objective) as density/mm2 or percentage stained area vs total analyzed area. Data are expressed as fold increase over control mice, as mean ± SEM of 8-10 animals per group. […]
For western blot, cell (25 µg/lane) and kidney (100-150 µg/lane) protein extracts were separated on 6%-12% polyacrylamide-SDS gels under reducing conditions. […] Autoradiographs were scanned using the Gel Doc™ EZ imager and analyzed with the Image Lab 3.0 software (BioRad). […]

[3] = tested on: CCL2, CCL5 and IL6, CCL21A and CCL19; assay: Proinflammatory gene expression (real time PCR) in TWEAK-stimulated PBMCs from healthy donors; assay type: cell-based, Human; settings: 15 µmol/L paricalcitol 48 hours, TWEAK 100 ng/mL 6 hours
[4] = tested on: NF-κB1; assay: Canonical NF-κB1 activation in obstructed kidneys (UUO) in mice; assay type: in vivo; settings: paricalcitol-treated obstructed kidneys (UUO); 750 ng/kg/day
Procedure: as §1
(§3) At the time of sacrifice, animals were anesthetized with 5 mg/kg xylazine (Rompun, Bayer AG) and 35 mg/kg ketamine (Ketolar, Pfizer) and the kidneys perfused in situ with cold saline before removal. Then, kidney portions were fixed in formalin buffer for immunohistochemistry studies or immediately frozen in liquid nitrogen for gene and protein studies.
Unilateral ureteral obstruction (UUO) was established in male C57BL/6 mice, under isoflurane-induced anesthesia. […]
For western blot, cell (25 µg/lane) and kidney (100-150 µg/lane) protein extracts were separated on 6%-12% polyacrylamide-SDS gels under reducing conditions. […] Autoradiographs were scanned using the Gel Doc™ EZ imager and analyzed with the Image Lab 3.0 software (BioRad).

[5] = tested on: renal inflammation induced by folic acid; assay: Renal inflammatory cell infiltration, folic acid-induced renal injury in mice; assay type: in vivo; settings: folic acid 300 mg/kg model; paricalcitol 25 µg/kg/day i.p.; anti-F4/80 and anti-CD3 immunohistochemistry
Procedure: as §1, §3
Folic acid nephropathy is a classical model of kidney tubulointerstitial injury and inflammation that has been reported in humans. Mice received a single intraperitoneal injection of folic acid (Sigma) 300 mg/kg in 0.3 mol/l sodium bicarbonate or vehicle, and were sacrificed 48 hours later. […]
as §2

## C[C@H](/C=C/[C@H](C)C(C)(C)O)[C@H]1CC[C@H]2/C(=C/C=C3C[C@@H](O)C[C@H](O)C3)CCC[C@]12C [paricalcitol]
[1]
  TWEAK-induced TRAF3 degradation: inhibited
[2]
  NF-κB2 activation, as determined by RelB and p52 levels, nuclear translocation and RelB DNA-binding activity: decreased; also recorded: blocked
  gene and protein expression of NF-κB2-dependent cytokines, such as CCL21A, as well as other pro-inflammatory factors: blocked
[3]
  TWEAK-induced upregulation of several proinflammatory genes, such as CCL2, CCL5 and IL6, as well as the NF-κB2-controlled genes CCL21A and CCL19: inhibited
[4]
  NF-κB1 activation, evaluated by IκB-α phosphorylation and p65/NF-κB DNA binding activity: not modified
[5]
  renal inflammatory cell infiltration: prevented
